From patent US6737383B1, “Herbicidal oxadiazolidines” (priority 1999, dated 2004)

Key:
bamyardgrass = experiment: Test B flood test barnyardgrass; type: in vivo, Echinochloa crus-galli
Procedure, shortened: (§1)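 Plants were grown to the 2-leaf stage before treatment with test chemical, then held in a greenhouse for twelve to sixteen days. Injury was visually rated against untreated controls on a 0–10 scale, where 0 is no effect and 10 is complete control.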

blackgrass = experiment: Test B pre/postemergence blackgrass; type: in vivo, Alopecurus myosuroides; settings: for Blackgrass plant response rating (0 to 10 scale): 0 is no effect
Procedure, shortened: (§2)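 Response is a visual 0-to-10 score relative to untreated plants, where 0 means no effect and 10 means complete control, taken twelve to sixteen days after application. Treatments went onto soil at planting and onto foliage of 1- to 4-leaf plants, using a surfactant-containing non-phytotoxic solvent.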

smallflower flatsedge = experiment: Test B flood test smallflower flatsedge; type: in vivo, Cyperus difformis
Procedure, shortened: as §1

wild oat = experiment: Test B pre/postemergence wild oat; type: in vivo, Avena fatua; settings: for Wild oats plant response rating (0 to 10 scale): 0 is no effect
Procedure, shortened: as §2

rice = experiment: Test B flood test rice; type: in vivo, Oryza sativa
Procedure, shortened: as §1

[1] = Postemergence (flood test species), Rate 125 g/ha, scale of 0 to 10 where 0 is no effect and 10 is complete control
[2] = Rate 250 g/ha, Postemergence (flood test), scale 0 to 10, 0 is no effect, 10 is complete control
[3] = Rate 250 g/ha, headed Pre-emergence (flood test species), scale 0 to 10 (0 no effect, 10 complete control)
[4] = Rate 500 g/ha, headed Pre-emergence (flood test species), scale 0 to 10 (0 no effect, 10 complete control)
[5] = Rate 500 g/ha, listed under Postemergence (flood test species), scale 0 to 10, 0 no effect, 10 complete control
[6] = Rate 1000 g/ha, Pre-emergence (as headed), scale 0 to 10
[7] = Postemergence, Rate 125 g/ha, scale of 0 to 10 where 0 is no effect and 10 is complete control
[8] = Preemergence, Rate 62 g/ha, scale 0 to 10 (0 no effect, 10 complete control)
[9] = Preemergence, Rate 125 g/ha, 10 is complete control
[10] = Preemergence, Rate 250 g/ha, scale 0 to 10, 0 is no effect, 10 is complete control
[11] = Preemergence, Rate 500 g/ha, scale 0 to 10 (0 no effect, 10 complete control)
[12] = Rate 62 g/ha, Postemergence, scale of 0 to 10 where 0 is no effect and 10 is complete control
[13] = Rate 250 g/ha, Postemergence, scale 0 to 10, 0 is no effect, 10 is complete control
[14] = Rate 500 g/ha, Postemergence, scale 0 to 10, 0 no effect, 10 complete control
[15] = Rate 62 g/ha, Postemergence section, flood test species, scale of 0 to 10 where 0 is no effect and 10 is complete control
[16] = Rate 2000 g/ha, Pre-emergence (as headed), scale 0 to 10
[17] = Rate 500 g/ha, Postemergence, scale 0 to 10
[18] = Rate 500 g/ha, listed under Postemergence (flood test species), scale 0 to 10
[19] = Rate 62 g/ha, headed Pre-emergence (flood test species), scale 0 to 10 (0 no effect, 10 complete control)
[20] = Rate 125 g/ha, Pre-emergence, flood test species, scale 0 to 10 where 0 is no effect and 10 is complete control
[21] = Rate 250 g/ha, Pre-emergence, flood-test species, scale 0 to 10, 0 is no effect, 10 is complete control
[22] = Preemergence, Rate 62 g/ha, scale of 0 to 10 where 0 is no effect and 10 is complete control
[23] = Rate 125 g/ha, Postemergence, scale 0 to 10
[24] = Rate 500 g/ha, Pre-emergence, flood test species, scale 0 to 10 (0 no effect, 10 complete control)
[25] = Preemergence, Rate 500 g/ha, scale of 0 to 10 where 0 is no effect and 10 is complete control

CC(C)N(C(=O)n1oc(=O)n(-c2ccnn2C)c1=O)c1ccc(F)cc1 [Compound 124]
Barnyardgrass plant response rating (bamyardgrass; [1]): 0
Barnyardgrass plant response rating (bamyardgrass; Postemergence, Rate 62 g/ha, scale 0 to 10, 0 is no effect, 10 is complete control): 0
Plant response rating, Barnyardgrass (bamyardgrass; [2]): 0
Barnyardgrass plant response rating (bamyardgrass; [3]): 0
Plant response rating, Barnyardgrass (bamyardgrass; [4]): 0
Barnyardgrass plant response rating (bamyardgrass; [5]): 0
Barnyardgrass plant response rating (bamyardgrass; [6]): 0
Barnyardgrass plant response rating (bamyardgrass; Rate 2000 g/ha, Pre-emergence (as headed), scale 0 to 10, 0 no effect, 10 complete control): 0
Blackgrass plant response rating (blackgrass; [7]): 0
Blackgrass plant response rating (blackgrass; [8]): 0
Blackgrass plant response rating (0 to 10 scale) (blackgrass; [9]): 0
Blackgrass plant response rating (blackgrass; [10]): 0
Blackgrass plant response rating (blackgrass; [11]): 0
Blackgrass plant response rating (blackgrass; [12]): 0
Plant response rating, Blackgrass (blackgrass; [13]): 0
Blackgrass plant response rating (blackgrass; [14]): 0
S. Flatsedge plant response rating (smallflower flatsedge; [1]): 0
S. Flatsedge plant response rating (smallflower flatsedge; Pre-emergence, Rate 1000 g/ha, scale 0 to 10 (0 no effect, 10 complete control)): 0
S. Flatsedge plant response rating (smallflower flatsedge; [15]): 0
Plant response rating, S. Flatsedge (smallflower flatsedge; [2]): 0
S. Flatsedge plant response rating (smallflower flatsedge; [3]): 0
Plant response rating, S. Flatsedge (smallflower flatsedge; [4]): 0
S. Flatsedge plant response rating (smallflower flatsedge; [5]): 0
S. Flatsedge plant response rating (smallflower flatsedge; [16]): 0
Wild oats plant response rating (wild oat; [7]): 0
Wild oats plant response rating (wild oat; [8]): 0
Wild oats plant response rating (0 to 10 scale) (wild oat; [9]): 0
Wild oats plant response rating (wild oat; [10]): 0
Wild oats plant response rating (wild oat; [11]): 0
Wild oats plant response rating (wild oat; [12]): 0
Plant response rating, Wild oats (wild oat; [13]): 0
Wild oats plant response rating (wild oat; [14]): 0
Rice plant response rating (rice; [1]): 0
Rice plant response rating (rice; [15]): 0
Plant response rating, Rice (rice; [2]): 0
Rice plant response rating (rice; [3]): 0
Plant response rating, Rice (rice; [4]): 0
Rice plant response rating (rice; [5]): 0
Rice plant response rating (rice; [6]): 0
Rice plant response rating (rice; [16]): 0

CC(C)c1noc(C(C)C)c1-n1c(=O)on(C(=O)N(c2ccc(F)cc2)C(C)C)c1=O [Compound 135]
Barnyardgrass plant response rating (bamyardgrass; [1]): 0
Barnyardgrass plant response rating (bamyardgrass; [15]): 0
Plant response rating, Barnyardgrass (bamyardgrass; [2]): 0
Barnyardgrass plant response rating (bamyardgrass; [5]): 0
Blackgrass plant response rating (blackgrass; [7]): 0
Blackgrass plant response rating (blackgrass; [8]): 0
Blackgrass plant response rating (0 to 10 scale) (blackgrass; [9]): 0
Blackgrass plant response rating (blackgrass; [10]): 0
Blackgrass plant response rating (blackgrass; [11]): 4
Blackgrass plant response rating (blackgrass; [12]): 0
Plant response rating, Blackgrass (blackgrass; [13]): 0
Blackgrass plant response rating (blackgrass; [17]): 0
S. Flatsedge plant response rating (smallflower flatsedge; [1]): 0
S. Flatsedge plant response rating (smallflower flatsedge; [15]): 0
Plant response rating, S. Flatsedge (smallflower flatsedge; [2]): 0
S. Flatsedge plant response rating (smallflower flatsedge; [18]): 0
Wild oats plant response rating (wild oat; [7]): 0
Wild oats plant response rating (wild oat; [8]): 0
Wild oats plant response rating (0 to 10 scale) (wild oat; [9]): 0
Wild oats plant response rating (wild oat; [10]): 0
Wild oats plant response rating (wild oat; [11]): 0
Wild oats plant response rating (wild oat; [12]): 0
Plant response rating, Wild oats (wild oat; [13]): 0
Wild oats plant response rating (wild oat; [17]): 0
Rice plant response rating (rice; [1]): 0
Rice plant response rating (rice; [15]): 0
Plant response rating, Rice (rice; [2]): 0
Rice plant response rating (rice; [18]): 0

CC(C)N(C(=O)n1oc(=O)n(Cc2ccccc2Cl)c1=O)c1ccc(F)cc1 [Compound 140]
Barnyardgrass plant response rating (bamyardgrass; [1]): 0
Barnyardgrass plant response rating (bamyardgrass; [15]): 0
Plant response rating, Barnyardgrass (bamyardgrass; [2]): 2
Barnyardgrass plant response rating (bamyardgrass; [5]): 8
Blackgrass plant response rating (blackgrass; [7]): 3
Blackgrass plant response rating (blackgrass; [8]): 0
Blackgrass plant response rating (0 to 10 scale) (blackgrass; [9]): 0
Blackgrass plant response rating (blackgrass; [10]): 4
Blackgrass plant response rating (blackgrass; [11]): 4
Blackgrass plant response rating (blackgrass; [12]): 3
Plant response rating, Blackgrass (blackgrass; [13]): 4
Blackgrass plant response rating (blackgrass; [17]): 6
S. Flatsedge plant response rating (smallflower flatsedge; [1]): 0
S. Flatsedge plant response rating (smallflower flatsedge; [15]): 0
Plant response rating, S. Flatsedge (smallflower flatsedge; [2]): 0
S. Flatsedge plant response rating (smallflower flatsedge; [18]): 0
Wild oats plant response rating (wild oat; [7]): 0
Wild oats plant response rating (wild oat; [8]): 0
Wild oats plant response rating (0 to 10 scale) (wild oat; [9]): 0
Wild oats plant response rating (wild oat; [10]): 1
Wild oats plant response rating (wild oat; [11]): 1
Wild oats plant response rating (wild oat; [12]): 0
Plant response rating, Wild oats (wild oat; [13]): 0
Wild oats plant response rating (wild oat; [17]): 1
Rice plant response rating (rice; [1]): 0
Rice plant response rating (rice; [15]): 0
Plant response rating, Rice (rice; [2]): 2
Rice plant response rating (rice; [18]): 4

COc1nc(OC)nc(N(C(=O)n2oc(=O)n(-c3ccccc3C)c2=O)C(C)C)n1 [Compound 181]
Barnyardgrass plant response rating (bamyardgrass; [19]): 0
Barnyardgrass plant response rating (bamyardgrass; [20]): 0
Barnyardgrass plant response rating (bamyardgrass; [21]): 0
Plant response rating, Barnyardgrass (bamyardgrass; [4]): 0
Blackgrass plant response rating (blackgrass; [22]): 0
Blackgrass plant response rating (0 to 10 scale) (blackgrass; [9]): 0
Blackgrass plant response rating (blackgrass; [10]): 0
Blackgrass plant response rating (blackgrass; [11]): 0
Blackgrass plant response rating (blackgrass; [12]): 0
Blackgrass plant response rating (blackgrass; [23]): 0
Plant response rating (0 to 10; 0 is no effect, 10 is complete control), Blackgrass (blackgrass; Rate 250 g/ha, Postemergence): 0
Blackgrass plant response rating (blackgrass; [17]): 0
S. Flatsedge plant response rating (smallflower flatsedge; [19]): 0
S. Flatsedge plant response rating (smallflower flatsedge; [20]): 0
S. Flatsedge plant response rating (smallflower flatsedge; [21]): 0
S. Flatsedge plant response rating (smallflower flatsedge; [24]): 0
Wild oats plant response rating (wild oat; [22]): 0
Wild oats plant response rating (wild oat; [10]): 0
Wild oats plant response rating (wild oat; [11]): 0
Wild oats plant response rating (wild oat; [23]): 0
Plant response rating (0 to 10; 0 is no effect, 10 is complete control), Wild oats (wild oat; Rate 250 g/ha, Postemergence): 0
Wild oats plant response rating (wild oat; [17]): 0
Rice plant response rating (rice; [19]): 0
Rice plant response rating (rice; [20]): 0
Rice plant response rating (rice; [21]): 0
Plant response rating, Rice (rice; [4]): 0

Cc1ccccc1-n1c(=O)on(C(=O)N(c2ccc(Cl)cc2Cl)C(C)C)c1=O [Compound 185]
Barnyardgrass plant response rating (bamyardgrass; [19]): 0
Barnyardgrass plant response rating (bamyardgrass; [20]): 0
Barnyardgrass plant response rating (bamyardgrass; [21]): 0
Plant response rating, Barnyardgrass (bamyardgrass; [4]): 0
Blackgrass plant response rating (blackgrass; [22]): 0
Blackgrass plant response rating (0 to 10 scale) (blackgrass; [9]): 0
Blackgrass plant response rating (blackgrass; [10]): 0
Blackgrass plant response rating (blackgrass; [11]): 0
Blackgrass plant response rating (blackgrass; [12]): 0
Blackgrass plant response rating (blackgrass; [23]): 0
Plant response rating (0 to 10; 0 is no effect, 10 is complete control), Blackgrass (blackgrass; Rate 250 g/ha, Postemergence): 0
Blackgrass plant response rating (blackgrass; [17]): 0
S. Flatsedge plant response rating (smallflower flatsedge; [19]): 0
S. Flatsedge plant response rating (smallflower flatsedge; [20]): 0
S. Flatsedge plant response rating (smallflower flatsedge; [21]): 0
S. Flatsedge plant response rating (smallflower flatsedge; [24]): 0
Wild oats plant response rating (wild oat; [22]): 0
Wild oats plant response rating (wild oat; [10]): 0
Wild oats plant response rating (wild oat; [11]): 0
Wild oats plant response rating (wild oat; [23]): 0
Plant response rating (0 to 10; 0 is no effect, 10 is complete control), Wild oats (wild oat; Rate 250 g/ha, Postemergence): 0
Rice plant response rating (rice; [19]): 0
Rice plant response rating (rice; [20]): 0
Rice plant response rating (rice; [21]): 0
Plant response rating, Rice (rice; [4]): 0

CSc1ccc(N(C(=O)n2oc(=O)n(-c3ccccc3C)c2=O)C(C)C)cc1 [Compound 205]
Barnyardgrass plant response rating (bamyardgrass; [19]): 0
Barnyardgrass plant response rating (bamyardgrass; [20]): 0
Barnyardgrass plant response rating (bamyardgrass; [21]): 0
Plant response rating, Barnyardgrass (bamyardgrass; [4]): 0
Blackgrass plant response rating (blackgrass; [22]): 0
Blackgrass plant response rating (0 to 10 scale) (blackgrass; [9]): 0
Blackgrass plant response rating (blackgrass; [10]): 0
Plant response rating, Blackgrass (blackgrass; [25]): 0
Blackgrass plant response rating (blackgrass; [12]): 0
Blackgrass plant response rating (blackgrass; [23]): 0
Plant response rating (0 to 10; 0 is no effect, 10 is complete control), Blackgrass (blackgrass; Rate 250 g/ha, Postemergence): 0
Blackgrass plant response rating (blackgrass; [17]): 0
S. Flatsedge plant response rating (smallflower flatsedge; [19]): 0
S. Flatsedge plant response rating (smallflower flatsedge; [20]): 0
S. Flatsedge plant response rating (smallflower flatsedge; [21]): 0
S. Flatsedge plant response rating (smallflower flatsedge; [24]): 0
Wild oats plant response rating (wild oat; [22]): 0
Wild oats plant response rating (wild oat; [10]): 0
Plant response rating, Wild oats (wild oat; [25]): 0
Wild oats plant response rating (wild oat; [12]): 0
Wild oats plant response rating (wild oat; [23]): 0
Plant response rating (0 to 10; 0 is no effect, 10 is complete control), Wild oats (wild oat; Rate 250 g/ha, Postemergence): 0
Rice plant response rating (rice; [19]): 0
Rice plant response rating (rice; [20]): 0
Rice plant response rating (rice; [21]): 0
Plant response rating, Rice (rice; [4]): 0
